Structures can show the parent of a compound that is named as a salt.
How the values were obtained:
human FLAP = human FLAP (Homo sapiens (Human), UniProt P20292); assay: FLAP binding assay (HTRF format); details: human FLAP-containing Sf-9 membranes, 25 nM HTRF ligand, 2 h; average of runs; read-out: FLAP Binding wild type HTRF Ki
Procedure: The ability of the compounds of the present invention to treat a FLAP-mediated disease and/or disorder, or associated symptoms or complications thereof, was determined using the following procedures. Binding assay data represent the average value obtained from two different assay plates, with samples run in duplicate on each plate. Human whole blood assay data represent a single replicate on an assay plate using whole blood from at least one healthy donor.
The assay below is used to test the modulatory activity of compounds against FLAP. Human and mouse FLAP-encoding DNA was amplified by polymerase chain reaction and cloned into pFastBacl (Invitrogen) with a NH2-terminal 6-His tag for expression in Spodoptera frugiperda (Sf-9) cells. FLAP-containing membranes were prepared as was a FITC-labeled FLAP modulator (3-(3-(tert-butylthio)-1-(4-chlorobenzyl)-5-(quinolin-2-ylmethoxy)-1H-indol-2-yl)-2,2-dimethylpropanoic acid). The FLAP binding assay is performed in HTRF format (homogeneous time resolved fluorescence). […] The reaction is allowed to proceed for two hours after which the plate is read on an Envision plate reader in HTRF mode. Data are expressed as a HTRF ratio.
For human FLAP binding assays, data are analyzed with 3DX Explorer software. […] For analysis, data from multiple runs are averaged and each compound may be tested in 2 to 20 runs. Each run comprises two plates and each plate includes duplicates. Data from each plate is averaged and data are imported into 3DX. The data from multiple runs are aggregated as the average of duplicates of the calculated ratios in order to calculate Ki and IC50 values. Numbers in parentheses are the number of runs for the assay.

[1] = test system: leukotriene pathway in human whole blood (LTB4); assay: Human whole blood assay (LTB4 after calcium ionophore A23187 stimulation); assay type: cell-based; details: human whole blood diluted 1:1 in RPMI, 15 min pre-incubation, A23187 7 μg/mL for 30 min at 37° Celsius
Procedure, shortened: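 Heparinised human whole blood, diluted 1:1 in RPMI, was preincubated with compound for 15 min at 37° C. before stimulation with A23187 (7 μg/mL) for 30 min. Plasma LTB4 was measured by immunoassay kit and IC50 obtained by 4-parameter fit; single replicate per plate, blood from at least one donor.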

Chain of human FLAP (P20292 whole entry): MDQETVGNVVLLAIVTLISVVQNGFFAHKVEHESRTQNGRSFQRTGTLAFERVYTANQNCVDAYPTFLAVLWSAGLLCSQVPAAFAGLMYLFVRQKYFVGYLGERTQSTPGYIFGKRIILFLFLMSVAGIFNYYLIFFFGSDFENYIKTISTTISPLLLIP

Row | Ki (human FLAP) [µM] | IC50 ([1]; Homo sapiens) [µM] | SMILES | IC50 [1] [µM]
1 | 0.03 | 0.69 | Cn1ccc(COc2ccc3nc([C@@H]4CCCC[C@@H]4C(=O)O)n(Cc4ccc(OC(F)(F)F)cc4Br)c3c2)n1 (racemic) [Example 104, racemic cis-2-{1-[2-Bromo-4-(trifluoromethoxy)benzyl]-6-[(1-methyl-1H-pyrazol-3-yl)methoxy]-1H-benzimidazol-2-yl}cyclohexanecarboxylic acid as the HCl salt] | –
2 | 0.0054 | 1.16 | Cc1cc(Cn2c([C@@H]3CCCC[C@@H]3C(=O)O)nc3ccc(OCc4ccn(C)n4)cc32)ccc1OC(F)(F)F (racemic) [Example 106, racemic cis-2-{6-[(1-Methyl-1H-pyrazol-3-yl)methoxy]-1-[3-methyl-4-(trifluoromethoxy)benzyl]-1H-benzimidazol-2-yl}cyclohexanecarboxylic acid as the HCl salt] | –
3 | 0.15 | 2.11 | Cc1ccc(Cn2c([C@@H]3[C@H](C(=O)O)C3(C)C)nc3ccc(OCc4ccc(C)cn4)cc32)cc1 (racemic) [Example 121, racemic cis-2,2-Dimethyl-3-{1-(4-methylbenzyl)-6-[(5-methylpyridin-2-yl)methoxy]-1H-benzimidazol-2-yl}cyclopropanecarboxylic acid] | –
4 | ~0.5 | 0.86 | Cn1ccc(COc2ccc3nc([C@@H]4[C@H](C(=O)O)C4(C)C)n(Cc4ccc(Br)cc4)c3c2)n1 (racemic) [Example 134, racemic cis-3-{1-(4-Bromobenzyl)-6-[(1-methyl-1H-pyrazol-3-yl)methoxy]-1H-benzimidazol-2-yl}-2,2-dimethylcyclopropanecarboxylic acid] | –
5 | 0.00066 | 0.091 | Cc1cnc(COc2ccc3nc([C@H]4CCCC[C@H]4C(=O)O)n(Cc4c(F)cc(-c5ccc(C(F)(F)F)cc5)cc4F)c3c2)c(F)c1 (racemic) [Example 137, racemic cis-2-(1-((3,5-difluoro-4′-(trifluoromethyl)-[1,1′-biphenyl]-4-yl)methyl)-6-((3-fluoro-5-methylpyridin-2-yl)methoxy)-1H-benzo[d]imidazol-2-yl)cyclohexanecarboxylic acid] | –
6 | 0.0025 | 0.097 | Cc1ccc(COc2ccc3nc([C@H]4CCCC[C@H]4C(=O)O)n(Cc4c(F)cc(-c5ccc(C(F)(F)F)cc5)cc4F)c3c2)nc1 (racemic) [Example 138, racemic cis-2-(1-{[3,5-Difluoro-4′-(trifluoromethyl)biphenyl-4-yl]methyl}-6-[(5-methylpyridin-2-yl)methoxy]-1H-benzimidazol-2-yl)cyclohexanecarboxylic acid] | –
7 | 0.0072 | 0.92 | Cc1ccc(COc2ccc3nc([C@H]4CCCC[C@H]4C(=O)O)n(Cc4cccc(-c5ccc(C(F)(F)F)cc5)c4)c3c2)nc1 (racemic) [Example 145, racemic cis-2-(6-[(5-Methylpyridin-2-yl)methoxy]-1-{[4′-(trifluoromethyl)biphenyl-3-yl]methyl}-1H-benzimidazol-2-yl)cyclohexanecarboxylic acid] | –
8 | 0.0014 | 0.14 | Cn1ccc(COc2ccc3nc([C@@H]4CCCC[C@@H]4C(=O)O)n(Cc4cccc(-c5ccc(C(F)(F)F)cc5)c4)c3c2)n1 (racemic) [Example 150, racemic cis-2-(6-[(1-Methyl-1H-pyrazol-3-yl)methoxy]-1-{[4′-(trifluoromethyl)biphenyl-3-yl]methyl}-1H-benzimidazol-2-yl)cyclohexanecarboxylic acid] | –
9 | 0.013 | 0.91 | Cn1cc(Cl)c(COc2ccc3nc([C@@H]4CCCC[C@@H]4C(=O)O)n(Cc4ccc(-c5ccc(C(F)(F)F)cc5)cc4)c3c2)n1 (racemic) [Example 151, racemic cis-2-(6-[(4-Chloro-1-methyl-1H-pyrazol-3-yl)methoxy]-1-{[4′-(trifluoromethyl)biphenyl-4-yl]methyl}-1H-benzimidazol-2-yl)cyclohexanecarboxylic acid] | –
10 | 0.004 | 0.3 | Cc1ccc(COc2ccc3nc(C4CCCC[C@H]4C(=O)O)n(Cc4ccc(N5CCC(F)(F)CC5)cc4F)c3c2)nc1 (mixture of isomers) [Example 161, racemic cis-2-{1-[4-(4,4-Difluoropiperidin-1-yl)-2-fluorobenzyl]-6-[(5-methylpyridin-2-yl)methoxy]-1H-benzimidazol-2-yl}cyclohexanecarboxylic acid] | –
11 | 0.012 | 1.22 | Cn1ccc(COc2cc(F)c3nc([C@@H]4CCCC[C@@H]4C(=O)O)n(Cc4ccc(N5CCCCC5)cc4)c3c2)n1 (racemic) [Example 169, racemic cis-2-{4-Fluoro-6-[(1-methyl-1H-pyrazol-3-yl)methoxy]-1-(4-piperidin-1-ylbenzyl)-1H-benzimidazol-2-yl}cyclohexanecarboxylic acid as the HCl salt] | –
12 | 0.0012 | 0.047 | Cc1cnc(COc2ccc3nc([C@@H]4CCCC[C@@H]4C(=O)O)n(Cc4ccc(N5CCC(C)CC5)cc4)c3c2)c(F)c1 (racemic) [Example 178, racemic cis-2-{6-[(3-Fluoro-5-methylpyridin-2-yl)methoxy]-1-[4-(4-methylpiperidin-1-yl)benzyl]-1H-benzimidazol-2-yl}cyclohexanecarboxylic acid] | –
13 | 0.00042 | 0.11 | Cc1cnc(COc2ccc3nc([C@H]4CCCC[C@H]4C(=O)O)n(Cc4ccc(N5CCC(F)CC5)cc4)c3c2)c(F)c1 (relative stereo) [Example 176, (1R*,2S*)-2-{6-[(3-Fluoro-5-methylpyridin-2-yl)methoxy]-1-[4-(4-fluoropiperidin-1-yl)benzyl]-1H-benzimidazol-2-yl}cyclohexanecarboxylic acid] | –
14 | 0.00047 | 0.14 | Cc1cnc(COc2ccc3nc([C@H]4CCCC[C@H]4C(=O)O)n(Cc4ccc(-c5ccc(C(F)(F)F)cc5)cc4)c3c2)c(F)c1 (single isomer, unassigned) [Example 139, (1R*,2S*)-2-(6-[(3-Fluoro-5-methylpyridin-2-yl)methoxy]-1-{[4′-(trifluoromethyl)biphenyl-4-yl]methyl}-1H-benzimidazol-2-yl)cyclohexanecarboxylic acid] | –
15 | 0.01 | 1.07 | Cc1ccc(COc2ccc3nc([C@H]4CCCC[C@H]4C(=O)O)n(Cc4ccc(C#N)cc4)c3c2)nc1 (stereo in doubt) [Example 39, (1R*,2S*)-2-{1-(4-Cyanobenzyl)-6-[(5-methylpyridin-2-yl)methoxy]-1H-benzimidazol-2-yl}cyclohexanecarboxylic acid] | –

Row | SMILES | Ki (human FLAP) [µM] | IC50 ([1]; Homo sapiens) [µM] | IC50 [1] [µM]
16 | Cn1ccc(COc2ccc3nc([C@@H]4[C@H](C(=O)O)C4(C)C)n(Cc4ccc(OC(F)(F)F)cc4)c3c2)n1 (racemic) [Example 122, racemic cis-2,2-Dimethyl-3-{6-[(1-methyl-1H-pyrazol-3-yl)methoxy]-1-[4-(trifluoromethoxy)benzyl]-1H-benzimidazol-2-yl}cyclopropanecarboxylic acid] | ~0.83 | 3.4 | –
17 | Cc1cnc(COc2ccc3nc([C@@H]4[C@H](C(=O)O)C4(C)C)n(Cc4ccc(Br)cc4)c3c2)c(F)c1 (racemic) [Example 132, racemic cis-3-{1-(4-Bromobenzyl)-6-[(3-fluoro-5-methylpyridin-2-yl)methoxy]-1H-benzimidazol-2-yl}-2,2-dimethylcyclopropanecarboxylic acid] | 0.0029 | 0.27 | –
18 | Cn1ccc(COc2cc(F)c3nc(C4CCCC[C@@H]4C(=O)O)n(Cc4ccc(N5CC(F)(F)C5)cc4)c3c2)n1 (mixture of isomers) [Example 168, racemic cis-2-{1-[4-(3,3-Difluoroazetidin-1-yl)benzyl]-4-fluoro-6-[(1-methyl-1H-pyrazol-3-yl)methoxy]-1H-benzimidazol-2-yl}cyclohexanecarboxylic acid as the formate salt] | 0.0078 | – | 3.57
19 | Cn1ccc(COc2ccc3nc([C@@H]4CCCC[C@@H]4C(=O)O)n(Cc4ccc(OC(F)(F)F)cc4F)c3c2)n1 (stereo in doubt) [Example 51, racemic cis-2-{1-[2-Fluoro-4-(trifluoromethoxy)benzyl]-6-[(1-methyl-1H-pyrazol-3-yl)methoxy]-1H-benzimidazol-2-yl}cyclohexanecarboxylic acid] | 0.008 | 0.34 | –
20 | Cn1ccc(COc2ccc3nc([C@@H]4CCCC[C@@H]4C(=O)O)n(Cc4ccc(OC(F)(F)F)cc4F)c3c2)n1 (stereo in doubt) [Example 52, (1S*,2R*)-2-{1-[2-Fluoro-4-(trifluoromethoxy)benzyl]-6-[(1-methyl-1H-pyrazol-3-yl)methoxy]-1H-benzimidazol-2-yl}cyclohexanecarboxylic acid] | > 10 | > 10 | –
